Data on 2 compounds can be found in patent US20200347347A1, “COMPOSITIONS AND METHODS FOR IMPROVED GAMETE VIABILITY AND FUNCTION” (Premium Genetics [UK] Ltd., priority 2017, published 2020).

Experiment [1] deals with sperm cells. Description: Outgoing quality control: progressively motile cells per straw after freeze-thaw. The format is cell-based, bovine. Particulars: NaF 0-6 mM in SVFEM.
Experimental: After 90 minutes of equilibration at 4° C. the samples were cryoprotected by adding TRIS B (which contains glycerol) to a final concentration of 20% v/v of sample in 3 separate additions, 15 minutes apart. The concentration of progressively motile cells was determined using the Hamilton Thorne IVOS II with HTCasa Animal Breeders II software set to the same capture settings listed above, but with a Xenon light source and an Olympus 10× UplanSApo objective. The cryoprotected sample was diluted to final live, motile cell concentration, 2.5 M/mL, in Packaging Extender and placed in Mini Straws which hold 0.25 mL volume (IMV technologies, Maple Grove, Minn. USA) using an MX4 straw filling and sealing machine (IMV technologies, Maple Grove, Minn. USA). Filled straws were rapidly cooled using a freeze tunnel before storage in liquid nitrogen.
Outgoing Quality Control Assessment: To assess the number of motile cells that survived the freezing process a single straw is thawed in a 37° C. water bath for 45 seconds. The straw is then plunged into a pre-warmed Eppendorf tube. The sample is then gently vortexed 10 seconds to homogenize the sample. After which 20 μLs of sample is added to 20 μLs of QC diluent, gently vortexed for 5 seconds, and read on the CASA fluorescent settings described above.
Experiment [2] concerns sperm cells. Description: Progressive motility of extended ejaculate stored at 19° C. (CASA). The format is cell-based, bovine. The note with it: SVFEM supplemented with 3 mM NaF normalized to 0 mM NaF; 24 hours; N=8.
Experimental: Progressive motile % was determined using a CASA system. N=10 paired ejaculates.
Ejaculate extension and Incoming Quality Assessment: The volume of the ejaculate was determined using a serological pipette and evenly divided into two tubes. Immediately, within 15 minutes, the SVFEM extender was added in a 1:1 ratio to the SVFEM extended half of the split ejaculate. […] On arrival, GTLS antibiotic solution was added at a 2% v/v of ejaculate.
Within 45 minutes of initial ejaculate collection, the cell concentration and incoming motility parameters were collected. Concentration was determined using a Nucleocounter SP-100™ with Reagent S100 and SP100 cassettes (ChemoMetec Allerod, Denmark). Motility characteristics were calculated by diluting 10 μL sample in 990 μL motility diluent and reading 7 frames each in 2 chambers of Leja 4 chamber capillary slides with a known chamber depth on a Hamilton Thorne IVOS II using HTCasa II software at 60 Hz frame capture speed in a 37° C. enclosed stage with a Zeiss 1× objective.
Experiment [3] has as its system sperm cells. Description: Motility of semen samples after 24-hour storage in media (Examples 4-7, 10, 11). The format is cell-based, Angus bull. The note with it: Example 10; samples stored for 24 hours. As for the experimental part: Semen sample creation: The media of Example 1 is mixed with semen in a 1:1 volume ratio. Optimal performance is seen when the media was warmed to 37° C. prior to mixing with Angus bull semen, and when the media is added to semen between 10 and 30 minutes post-ejaculation. The media remains effective, however, when mixed with cells 1 hour after ejaculation. After the addition of the media, cells are stored at 19° C. […] In FIG. 33 p=0.017, in a paired t-test. […] Semen samples from Angus bulls (n=4) were taken and tested at the collection, then after storing in the media of Example 1 (SVFEM) for 24 hours. […] Another test was performed to compare samples after 24-hour storage. Semen samples from Angus bulls (n=10) were taken and combined with media. Samples using the inventive media SVFEM were compared to control samples using conventional media. Samples were analyzed to determine whether motility of cells was lost due to storage.

`[F-].[Na+]` [NaF, sodium fluoride]: the “number of motile cells which survive a freeze/thaw after 24 hours' extension” value in experiment [1] is reported as “improved efficacy”. The “fall of % progressive motile cells after staining below paired SVFEM group” value in experiment [2] is given as “at least 20%”.

In the case of phosphatidylserine [PS], the “effect of eliminating the ingredient from SVFEM on motility” value in experiment [3] is “drop in motility”.
